The results in this text go back to PubChem BioAssay (NCI).

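Dose response: 5 concentrations. Exposure: 48 h. Format: 96-well plates. Endpoint: linear interpolation; highest concentration if not reached. Here, GI50 denotes the concentration required for 50% inhibition of growth. The concentration for full growth arrest is given as TGI.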

Among the test systems are M14 melanoma; HT29 colon; SF-539 CNS; LOX IMVI melanoma; K-562 leukemia; PC-3 prostate; HCT-116 colon; SF-295 CNS; SW-620 colon; MDA-MB-435.
Test in all cases: inhibition of tumour cell growth, NCI panel, 48 h

With `CC[C@]12C=CCN3CC[C@]4(C(=C(C(=O)OC)C1)Nc1cc(O)ccc14)[C@@H]32`, the GI50 is 13.9 µM with M14 melanoma; 19.9 µM in the assay with HT29 colon; 15.1 µM in the assay with SF-539 CNS; 13.6 µM in the assay with LOX IMVI melanoma; 7.59 µM in the assay on K-562 leukemia; 21.2 µM in the assay with PC-3 prostate. Moreover, the GI50 in the assay with HCT-116 colon was 16.2 µM; with SF-295 CNS, 16.7 µM; in the assay on SW-620 colon it was 16.3 µM; in the assay on MDA-MB-435 it was 3.63 µM. Besides, the TGI in the assay with M14 melanoma is 34.3 µM; in the assay with HT29 colon it was 63.1 µM; with SF-539 CNS, 30.1 µM; in the assay with LOX IMVI melanoma, 26.7 µM; with K-562 leukemia it was above 100 µM; with PC-3 prostate, 50.5 µM. Moreover, the TGI came out at 34.3 µM in the assay with HCT-116 colon, 33.1 µM in the assay on SF-295 CNS, 36.6 µM in the assay on SW-620 colon and 16.8 µM in the assay on MDA-MB-435.
As for `Nc1ncnc2occ(-c3ccc(NC(=O)Nc4cc(C(F)(F)F)cc(C(F)(F)F)c4)cc3)c12`, the GI50 is 3.09 µM in the assay with M14 melanoma; 1.83 µM in the assay with HT29 colon; 1.06 µM with SF-539 CNS; 3.27 µM in the assay with LOX IMVI melanoma; 0.925 µM in the assay with K-562 leukemia; 3.07 µM in the assay on PC-3 prostate. In addition, the GI50 is 2.63 µM in the assay with HCT-116 colon, 2.72 µM in the assay with SF-295 CNS, 4.01 µM with SW-620 colon and 3.45 µM in the assay with MDA-MB-435. Besides, the TGI with M14 melanoma came to 6.4 µM; with HT29 colon, 5.29 µM; in the assay on SF-539 CNS it was 5.44 µM; in the assay with LOX IMVI melanoma, 6.83 µM; in the assay with K-562 leukemia, 9.21 µM; in the assay with PC-3 prostate, 8.33 µM. In addition, the TGI came to 5.64 µM in the assay with HCT-116 colon, 6.53 µM in the assay on SF-295 CNS, 7.61 µM in the assay on SW-620 colon and 7.15 µM with MDA-MB-435.
For `CCOP(=O)(OCC)/C(C#N)=C\c1cccc2ccccc12`, the TGI with M14 melanoma is above 100 µM; with HT29 colon, above 100 µM; in the assay on SF-539 CNS, above 100 µM; in the assay with LOX IMVI melanoma it was above 59.4 µM; in the assay with K-562 leukemia it was above 100 µM; in the assay with PC-3 prostate, above 100 µM. Further, the TGI in the assay on HCT-116 colon, in the assay on SF-295 CNS, with SW-620 colon and in the assay on MDA-MB-435 was above 100 µM each time.
Consider `CC(CS(=O)(=O)Cc1ccccc1)C(N)=O` (stereo not given), for which the TGI in the assay on M14 melanoma, in the assay with HT29 colon, in the assay on SF-539 CNS, with LOX IMVI melanoma, with K-562 leukemia and in the assay with PC-3 prostate was above 100 µM throughout. The TGI in the assay on HCT-116 colon, with SF-295 CNS, in the assay with SW-620 colon and with MDA-MB-435 was above 100 µM each time.
Consider `COc1ccc2nc3ccc(OC)cc3c(SCCCN)c2c1`, for which the GI50 in the assay with M14 melanoma is 8.48 µM; with HT29 colon, 1.91 µM; with SF-539 CNS, 13.7 µM; in the assay on LOX IMVI melanoma, 2.22 µM; with K-562 leukemia it was 1.67 µM; with PC-3 prostate, 1.71 µM. In addition, the GI50 in the assay with HCT-116 colon was 3.21 µM; in the assay with SF-295 CNS, 18.3 µM; in the assay with SW-620 colon, 1.44 µM; in the assay with MDA-MB-435 it was 6.83 µM. Also, the TGI with M14 melanoma was determined as 31.1 µM; with HT29 colon, 4.07 µM; with SF-539 CNS it was 26.8 µM; in the assay on LOX IMVI melanoma, 5.26 µM; in the assay with K-562 leukemia it was 3.89 µM; in the assay on PC-3 prostate it was 4.68 µM. Also, the TGI was 12.6 µM in the assay with HCT-116 colon, 38.7 µM in the assay on SF-295 CNS, 3.15 µM in the assay with SW-620 colon and 27.6 µM in the assay on MDA-MB-435.
`COc1ccccc1C(=O)c1cnc(NC2CCN(S(C)(=O)=O)CC2)nc1N`: the GI50 in the assay on M14 melanoma is 10.2 µM; in the assay on HT29 colon, 6.27 µM; in the assay on SF-539 CNS, 4.97 µM; in the assay with LOX IMVI melanoma it was 6.25 µM; with K-562 leukemia it was above 25 µM; with PC-3 prostate, 3.48 µM. Also, the GI50 in the assay with HCT-116 colon is 4.52 µM; with SF-295 CNS, 5.5 µM; with SW-620 colon, 4.33 µM; with MDA-MB-435 it was 4.83 µM. Also, the TGI with M14 melanoma was above 25 µM; in the assay on HT29 colon, above 25 µM; in the assay with SF-539 CNS it was 15.2 µM; in the assay with LOX IMVI melanoma it was above 25 µM; in the assay on K-562 leukemia, above 25 µM; in the assay with PC-3 prostate it was above 25 µM. Besides, the TGI in the assay with HCT-116 colon, in the assay on SF-295 CNS, in the assay with SW-620 colon and in the assay on MDA-MB-435 was above 25 µM in each case.
`c1ccc2c(c1)nc(NCCN1CCNCC1)c1c3ccccc3[nH]c21`: the GI50 in the assay with M14 melanoma is 1.24 µM; in the assay on HT29 colon, 0.167 µM; with SF-539 CNS it was 0.616 µM; with LOX IMVI melanoma, 0.295 µM; with K-562 leukemia it was 0.0935 µM; with PC-3 prostate, 0.356 µM. In addition, the GI50 is 0.165 µM in the assay on HCT-116 colon, 0.618 µM with SF-295 CNS, 0.25 µM in the assay with SW-620 colon and 0.798 µM in the assay with MDA-MB-435. Moreover, the TGI in the assay on M14 melanoma came out at 2.81 µM; in the assay on HT29 colon, 1.53 µM; in the assay on SF-539 CNS it was 2.2 µM; in the assay with LOX IMVI melanoma, 1.03 µM; in the assay on K-562 leukemia, 2.07 µM; with PC-3 prostate, 1.97 µM. Moreover, the TGI in the assay with HCT-116 colon was 1.42 µM; with SF-295 CNS it was 2.21 µM; in the assay with SW-620 colon, 2.54 µM; in the assay on MDA-MB-435, 2.24 µM.
As to `COc1c(O)c(OC)c(C(=O)/C=C/c2ccccc2)c(O)c1OC`, the TGI was above 100 µM in the assay with M14 melanoma; above 100 µM in the assay with HT29 colon; 86.7 µM in the assay on SF-539 CNS; 87.2 µM in the assay on LOX IMVI melanoma; above 100 µM in the assay with K-562 leukemia; above 100 µM in the assay with PC-3 prostate. Besides, the TGI with HCT-116 colon was 34.5 µM; in the assay with SF-295 CNS, above 100 µM; in the assay with SW-620 colon it was 66.2 µM; in the assay on MDA-MB-435 it was 66.2 µM.
Consider `Cc1cc(CS(=O)(=O)/C=C/c2ccccc2[N+](=O)[O-])c(CS(=O)(=O)/C=C/c2ccccc2[N+](=O)[O-])cc1C`, for which the TGI in the assay on M14 melanoma is above 100 µM; in the assay with HT29 colon it was above 100 µM; with SF-539 CNS, 35.9 µM; with LOX IMVI melanoma, above 100 µM; with K-562 leukemia it was above 100 µM; with PC-3 prostate it was above 100 µM. The TGI in the assay with HCT-116 colon is above 100 µM; with SF-295 CNS, 63.2 µM; with SW-620 colon, above 100 µM; with MDA-MB-435, above 100 µM.
